The values that follow are results of earlier work, collected in patent US20240261217A1, “NUTRACEUTICAL GUMMY COMPOSITIONS AND METHOD OF PREVENTING ALCOHOL OVERCONSUMPTION SYMPTOMS” (LiQure, Inc., priority 2023, published 2024).

For series [1] the following is noted: in vivo.
The test system of series [2] is acetaldehyde dehydrogenase (ALDH).
Another series has as its system liver. The following applies: mouse, in vivo.
The subject of the next series is intoxicated mice. The following applies: DHM administered to intoxicated mice.
Series [3] deals with alcohol dehydrogenase (ADH).
The conditions of series [4]: recent studies.

“Also recorded” adds a separate entry of the source.

As for `O=C1c2c(O)cc(O)cc2O[C@H](c2cc(O)c(O)c(O)c2)[C@H]1O` [DHM, Dihydromyricetin], the “amount found to mitigate symptoms of over-intoxication from alcohol” value in series [1] was 100 to 650 mg. Further, in series [2], the “effect on activity of acetaldehyde dehydrogenase (ALDH)” value is given as “enhances the activity of these enzymes”. In addition, the “effect on alcohol-induced liver damage” value with liver is listed as “can also prevent (and help repair) alcohol-induced liver damage; also recorded: protect the liver from alcohol-induced damage”. Also, in the series with intoxicated mice, the anti-hangover benefits result is given as “provide “anti-hangover” benefits” and the liver-protection properties entry is “possesses liver-protection properties”. Also, the “effect on activity of alcohol dehydrogenase (ADH)” value in series [3] is “enhances the activity of these enzymes”. Also, the “hangover symptoms compared with people who did not take DHM” value (during a hangover) was “fewer headaches, less dizziness, less nausea, and less weakness during a hangover”. Where the note is “studies and anecdotal reports, users”, the “symptoms when taking DHM after drinking alcohol” value was “fewer headaches, less nausea, less vomiting and less anxiety”. The “effect on blood alcohol levels” value in series [4] is on record as “can reduce blood alcohol levels”.
